Results as given in patent US8163788B2, “Low-molecular inhibitors of cytohesin-family guanine nucleotide exchange factors” (Rheinische Friedrich-Wilhelms Universitat Bonn, priority 2004, dated 2012).
Read-outs that look alike come from different tables or passages of the source.

Experiments:
sec7-domain of Gea2 = target: T1, sec7-domain of Gea2 (Saccharomyces cerevisiae, UniProt P39993); assay: GDP/GTP exchange on NΔ17-ARF1 catalysed by sec7-domain (tryptophan fluorescence); type: biochemical
T1 construct: 1 μM of the purified sec7-domain of cytohesin-1, cytohesin-2 and Gea2; made in house; host or cells: E. coli BL21DE3
Protocol: (§1) The IC50 value for the inhibition of the exchange activity of the sec7-domains of various guanine nucleotide exchange factors of the compounds (9), (10), (11), (12), (14) and (19) was determined.
(§2) For this purpose, the sec7-domains of cytohesin-1, cytohesin-2 and Gea2 as well as the NΔ 17-ARF 1, a mutant of the ARF protein, recombinantly expressed in E. coli BL21DE3, were purified by means of a standard method and used as catalysts for the exchange from GDP to GTP in GTPases of the family of the ADP ribosylation factors. The exchange from GDP to GTP induces a conformation change of the ribosylation factor, as a result of which the fluorescence of a tryptophan radical of the protein is increased.
(§3) In 50 mM of HEPES, pH 7.4, 120 mM of KCl, 1 mM of MgCl2, 45 μM of GTP S, the compounds (9), (10), (11), (12), (14) and (19), each in concentrations of 1 μM to 30 μM, were added to 1 μM NΔ 17-ARF1 and, in each case, 1 μM of the purified sec7-domain of cytohesin-1, cytohesin-2 and Gea2, and the fluorescence was measured in a Varioskan, Thermo LifeSciences Inc., at the following wavelengths: excitation: 275 nm, emission 340 nm.
(§4) The IC50 value can be determined by plotting the initial rise of the fluorescence signal against the added concentrations of the compounds. The IC50 value corresponds to the concentration of the compounds at which the activity of the protein is reduced to half. […] Brefeldin A, a specific inhibitor of the […] Gea2 served as the control.

[1] = target: T2, sec7-domain of cytohesin-1 (Homo sapiens, UniProt Q15438); assay: as above; type: biochemical; details: 1 μM NΔ17-ARF1, 1 μM sec7-domain, compounds 1 μM to 30 μM
T2 construct: central sec7-domain, corresponding to the amino acids 62-244 in cytohesin-1; made in house; host or cells: E. coli BL21DE3
T2 sequence (Q15438 62-244): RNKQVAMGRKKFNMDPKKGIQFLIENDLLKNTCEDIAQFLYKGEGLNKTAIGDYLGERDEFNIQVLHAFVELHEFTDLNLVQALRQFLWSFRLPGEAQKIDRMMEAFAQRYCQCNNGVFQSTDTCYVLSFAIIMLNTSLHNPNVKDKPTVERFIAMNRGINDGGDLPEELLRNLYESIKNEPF
Protocol: as §1, §2, §3, §4

[2] = system: sec7-domain of cytohesin-1; assay: as above; type: biochemical; details: conclusion in words from Table 1
Protocol: as §1, §2, §3, §4

[3] = target: T3, sec7-domain of cytohesin-2 (Homo sapiens, UniProt Q99418); assay: as above; type: biochemical; details: 1 μM NΔ17-ARF1, 1 μM sec7-domain, compounds 1 μM to 30 μM
T3 construct: 1 μM of the purified sec7-domain of cytohesin-1, cytohesin-2 and Gea2; made in house; host or cells: E. coli BL21DE3
T3 sequence (Q99418 72-201 limits assumed): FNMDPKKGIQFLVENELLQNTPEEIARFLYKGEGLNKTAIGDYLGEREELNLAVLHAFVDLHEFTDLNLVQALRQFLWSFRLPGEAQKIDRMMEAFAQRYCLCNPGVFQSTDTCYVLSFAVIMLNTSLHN
Protocol: as §1, §2, §3, §4

cytohesin-2 = assay: luciferase assay in HeLa-cells (serum response element activation, MAPK path via cytohesin-2); type: cell-based; details: compounds 1 μM to 50 μM, read-out: IC50 (luciferase signal)
Protocol: The IC50 value was determined in comparison to the LC50 value in a luciferase assay in HeLa-cells, corresponding to the test conditions described in Theis, M. G. et al., Proc Natl Acad Sci USA, 101, 11221-26 (2004). The stimulation of receptor tyrosine kinases by means of growth factors contained in fetal calf serum activates the MAPK path via cytohesin-2 and results in an activation of the serum response element. This activation manifests itself in the quantity of luciferase produced in the cells.
Compounds (9), (10), (11), (12), (14) and (19) were each added in concentrations of 1 μM to 50 μM to 6.5×10^4 HeLa-cells.
The IC50 value was determined from the plotting of the concentration of the compound against the intensity of the luciferase signal.

[4] = MTT assay (LC50) in HeLa-cells; type: cell-based; details: human, after 24 hours
Protocol: The LC50 values were determined by an MTT assay according to a standard method.
The LC50 value describes the lethal concentration at which […] died within 24 hours after a one-time administration.

[5] = system: human peripheral blood cells (PBL); assay: adhesion of human peripheral blood cells (PBL) to ICAM-1 after stimulation with OKT3 or PMA; type: cell-based; details: stimulation with OKT3; FIG. 2
Text: Human peripheral blood cells (PBL) were stimulated with agonists that activate a beta-2 integrin-dependent adhesion. In these primary human lymphocytes, the beta-2 integrin-dependent adhesion can be activated by cytohesins at the specific ligands ICAM-1.
The agonists employed were the monoclonal antibody OKT3 (hybridome of ATCC, mAb OKT3 purified on protein A, according to standard methods from Current Protocols in Immunology, 5th Ed., Coligan et al., Edts, Wiley 2004) against the CD3 complex, a T-cell receptor and phorbolester (PMA), which non-physiologically activates intracellular signal cascades in human PBL including integrin-dependent adhesion while circumventing cytohesins.
Cells from human blood were isolated according to standard methods (Current Protocols in Immunology, 5th Ed., 2004, Coligan et al., Edts, Wiley). Cell culture dishes coated with ICAM-1 were produced by means of recombinant ICAM-1-Fc fusion protein (Kolanus, W. et al., Cell 86, 233-42 (1996), Geiger, C. et al., EMBO J., 19, 2525-2536 (2000)). 300,000 human peripheral blood cells (PBL) were stimulated for 30 minutes with 2 μg/ml of OKT3 or 40 ng/ml of phorbolester (PMA) in Hank's BSS, (Gibco; composition (g/l): CaCl2x2H2O (0.185), KCl (0.4), KH2PO4 (0.06), MgCl2x6H2O (0.1), MgSO4x7H2O (0.1), NaCl (8.0), NaHCO3 (0.35), Na2HPO4 (0.048), D-glucose (1.0)), and placed for one hour in Hank's BSS onto the ICAM-1 coated cell culture dishes, whereby the agonists were not removed. Non-bound cells were removed by washing with Hank's BSS. The percentage of bound cells was determined by counting under a microscope using a standard counting grid.

T1 sequence (P39993 570-714): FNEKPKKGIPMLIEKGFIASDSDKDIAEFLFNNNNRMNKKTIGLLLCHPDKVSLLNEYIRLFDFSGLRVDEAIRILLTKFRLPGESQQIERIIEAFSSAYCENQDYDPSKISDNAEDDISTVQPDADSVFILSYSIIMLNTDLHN

Structure (SMILES) | IC50 (sec7-domain of Gea2) [µM] | IC50 [1] [µM] | specificity of inhibition of sec7-domains (cytohesins vis-à-vis Gea2) [2] | IC50 [3] [µM] | IC50 (cytohesin-2) [µM] | CC50 at 24 h [4] [µM] | IC50 (sec7-domain of Gea2; 1 μM NΔ17-ARF1, 1 μM sec7-domain, compounds 1 μM to 30 μM, read-out: IC50 Gea2-sec7) [µM] | effect on OKT3-mediated adhesion in primary human lymphocytes [5]
CN(c1cc(Cl)nc(SCc2ccc(C(=O)NCc3ccco3)cc2)n1)C1CCCCC1 [Compound 12] | 22 ± 2 | 8 ± 0.3 | specific inhibition of the sec7-domains of the cytohesins | 19.5 ± 0.3 | 5 ± 1.5 | > 150 |  | 
CCOc1nc(-c2cccc(F)c2)n(-c2ccc(NC(=O)Cc3cccs3)cc2)n1 [Compound 10] | 67 ± 5 | 12.6 ± 0.3 | specific inhibition of the sec7-domains of the cytohesins | 16.1 ± 0.9 | 23 ± 5 | > 150 |  | 
C[C@H]1CCC/C=C/[C@@H]2C[C@H](O)C[C@H]2[C@H](O)/C=C/C(=O)O1 [Brefeldin A, reference compound] |  | > 150 | specific inhibition of the sec7-domain of Gea2 | > 150 |  |  | 23 ± 1 | 
O=C(O)[C@H]1CSCN1C(=O)Cc1cccs1 [Compound 19] |  | 15 ± 0.3 | specific inhibition of the sec7-domains of the cytohesins | 20 ± 0.6 | 3.5 ± 0.5 | > 150 |  | 
CC(C)(C)c1ccc(S(=O)(=O)N(Cc2ccc(OS(C)(=O)=O)cc2)CC2CCCO2)cc1 (stereo not shown) [Control 1, reference compound] |  |  |  |  | > 50 | > 150 |  | 
CCOCCCN(Cc1nc(C(=O)NCCCOCO)co1)C(=O)c1ccccc1Br [Control 2, reference compound] |  |  |  |  |  |  |  | no effect
O=C(CN(CC1CCCO1)C(=O)Cc1cccs1)N(Cc1ccc(F)cc1)Cc1ccco1 (stereo not shown) [Compound 14] |  | 14.8 ± 0.3 | specific inhibition of the sec7-domains of the cytohesins | 19.3 ± 0.3 | 3 ± 1 |  |  | 
CCOc1nc(-c2ccccc2F)n(-c2ccc(NC(=O)CSc3ccccc3)cc2)n1 [Compound 11] | 42 ± 4 | 8.8 ± 0.3 | specific inhibition of the sec7-domains of the cytohesins | 12.4 ± 0.3 | 5 ± 1.5 | 142 ± 12 |  | 
